# Experiments:
# [1] = tested on: SKRC52 human renal tumor xenograft; experiment: Whole body fluorescence imaging of SKRC52 human renal tumor xenograft bearing mouse (IVIS imager); type: in vivo; settings: 10 nmol
# Description: SKRC52 human renal tumor xenograft bearing mouse was injected with 10 nmol of 54 and imaged with IVIS imager (ex=745 nm, em=ICG, exposure time=1 s) at different time intervals.
# SKRC52 human renal tumor xenograft bearing mouse was injected with 10 nmol of 55 and imaged with IVIS imager (ex=745 nm, em=ICG, exposure time=1 s) at different time intervals.
# SKRC52 human renal tumor xenograft bearing mouse was injected with 10 nmol of 60 and imaged with IVIS imager (ex=745 nm, em=ICG, exposure time=[…]) at different time intervals.
# SKRC52 human renal tumor xenograft bearing mouse was injected with 10 nmol of 61 and imaged with IVIS imager (ex=745 nm, em=ICG, exposure time=[…]) at different time intervals.
# SKRC52 human renal tumor xenograft bearing mouse was injected with 10 nmol of 62 and imaged with IVIS imager (ex=745 nm, em=ICG, exposure time=1 s) at different time intervals.
# SKRC52 human renal tumor xenograft bearing mouse was injected with 10 nmol of 65 and imaged with IVIS imager (ex=745 nm, em=ICG, exposure time=1 s) at different time intervals.
# SKRC52 human renal tumor xenograft bearing mouse was injected with 10 nmol of 69 and imaged with IVIS imager (ex=745 nm, em=ICG, exposure time=1 s) at different time intervals.
# SKRC52 human renal tumor xenograft bearing mouse was injected with 10 nmol of 70 and imaged with IVIS imager (ex=745 nm, em=ICG, exposure time=1 s) at different time intervals.
# SKRC52 human renal tumor xenograft bearing mouse was injected with 10 nmol 72 and imaged with IVIS imager (ex=745 nm, em=ICG, exposure time=1 s) at different time intervals
# SKRC52 human renal tumor xenograft bearing mouse was injected with 10 nmol of 76 and imaged with IVIS imager (ex=745 nm, em=ICG, exposure time=1 s) at different time intervals
# SKRC52 human renal tumor xenograft bearing mouse was injected with 10 nmol of 77 and imaged with IVIS imager (ex=745 nm, em=ICG, exposure time=1 s) at different time intervals
# SKRC52 human renal tumor xenograft bearing mouse was injected with 10 nmol of 80 and imaged with IVIS imager (ex=745 nm, em=ICG, exposure time=1 s) at different time intervals
# SKRC52 human renal tumor xenograft bearing mouse was injected with 10 nmol of 81 and imaged with IVIS imager (ex=745 nm, em=ICG, exposure time=1 s) at different time intervals
# SKRC52 human renal tumor xenograft bearing mouse was injected with 10 nmol of 85 and imaged with IVIS imager (ex=745 nm, em=ICG, exposure time=1 s) at different time intervals
# SKRC52 human renal tumor xenograft bearing mouse was injected with 10 nmol of 86 and imaged with IVIS imager (ex=745 nm, em=ICG, exposure time=1 s) at different time intervals
# SKRC52 human renal tumor xenograft bearing mouse was injected with 10 nmol of 87 and imaged with IVIS imager (ex=745 nm, em=ICG, exposure time=1 s) at different time intervals
# SKRC52 human renal tumor xenograft bearing mouse was injected with 10 nmol of 88 and imaged with IVIS imager (ex=745 nm, em=ICG, exposure time=1 s) at different time intervals
# SKRC52 human renal tumor xenograft bearing mouse was injected with 10 nmol of 89 and imaged with IVIS imager (ex=745 nm, em=ICG, exposure time=1 s) at different time intervals
# SKRC52 human renal tumor xenograft bearing mouse was injected with 10 nmol of 90 and imaged with IVIS imager (ex=745 nm, em=ICG, exposure time=1 s) at different time intervals
# SKRC52 human renal tumor xenograft bearing mouse was injected with 10 nmol of 93 and imaged with IVIS imager (ex=745 nm, em=ICG, exposure time=1 s) at different time intervals
# SKRC52 human renal tumor xenograft bearing mouse was injected with 10 nmol of 95 and imaged with IVIS imager (ex=745 nm, em=ICG, exposure time=1 s) at different time intervals
# SKRC52 human renal tumor xenograft bearing mouse was injected with 10 nmol of 99 and imaged with IVIS imager (ex=745 nm, em=ICG, exposure time=1 s) at different time intervals […]
# [2] = in the presence and absence of light; cited from earlier work
# [3] = imaged at different time intervals
# [4] = within 2-24 hours after administering to the animal
Structure (SMILES),"tumor-to-background ratio (TBR) [1, 3]","tumor-to-skin ratio [1, 3]",accumulation retained in the tumor (fluorescence over 24 hours) [1],"whole-body imaging data [1, 4]",further results
CC1(C)C(/C=C/C2=C(Oc3ccc(C[C@H](NC(=O)CCOCCOCCNC(=O)CCS(=O)(=O)c4c(F)c(F)c(S(N)(=O)=O)c(F)c4NC4CCCCC4)C(=O)O)cc3)C(=C/C=C3/N(CCCCS(=O)(=O)O)c4ccc(S(=O)(=O)O)cc4C3(C)C)/CCC2)=[N+](CCCCS(=O)(=O)[O-])c2ccc(S(=O)(=O)O)cc21 [Compound 60],excellent,excellent,very high accumulation,very good,–
CC1(C)C(/C=C/C2=C(Oc3ccc(C[C@H](NC(=O)CCS(=O)(=O)c4c(F)c(F)c(S(N)(=O)=O)c(F)c4NC4CCCCCCC4)C(=O)O)cc3)C(=C/C=C3/N(CCCCS(=O)(=O)O)c4ccc(S(=O)(=O)O)cc4C3(C)C)/CCC2)=[N+](CCCCS(=O)(=O)[O-])c2ccc(S(=O)(=O)O)cc21 [Compound 62],excellent,excellent,very high accumulation,very good,–
CC1(C)C(/C=C/C2=C(Oc3ccc(C[C@H](NC(=O)CCOCCOCCNC(=O)CCS(=O)(=O)c4c(F)c(F)c(S(N)(=O)=O)c(F)c4NC4CCC(F)(F)CC4)C(=O)O)cc3)C(=C/C=C3/N(CCCCS(=O)(=O)O)c4ccc(S(=O)(=O)O)cc4C3(C)C)/CCC2)=[N+](CCCCS(=O)(=O)[O-])c2ccc(S(=O)(=O)O)cc21 [Compound 72],excellent,excellent,very high accumulation,very good,–
CC(C)C[C@H](Nc1c(F)c(S(N)(=O)=O)c(F)c(F)c1S(=O)(=O)CCC(=O)NCCOCCOCCC(=O)N[C@@H](Cc1ccc(OC2=C(/C=C/C3=[N+](CCCCS(=O)(=O)[O-])c4ccc(S(=O)(=O)O)cc4C3(C)C)CCC/C2=C\C=C2\N(CCCCS(=O)(=O)O)c3ccc(S(=O)(=O)O)cc3C2(C)C)cc1)C(=O)O)C(=O)OCc1ccccc1 [Compound 76],excellent,excellent,very high accumulation,very good,–
CC(C)C[C@H](Nc1c(F)c(S(N)(=O)=O)c(F)c(F)c1S(=O)(=O)CCC(=O)NCCOCCOCCC(=O)N[C@@H](Cc1ccc(OC2=C(/C=C/C3=[N+](CCCCS(=O)(=O)[O-])c4ccc(S(=O)(=O)O)cc4C3(C)C)CCC/C2=C\C=C2\N(CCCCS(=O)(=O)O)c3ccc(S(=O)(=O)O)cc3C2(C)C)cc1)C(=O)O)C(=O)O [Compound 77],excellent,excellent,very high accumulation,very good,–
CC1(C)C(/C=C/C2=C(Oc3ccc(C[C@H](NC(=O)CCOCCOCCNC(=O)CCS(=O)(=O)c4ccc(S(N)(=O)=O)cc4NC4CCCCCCC4)C(=O)O)cc3)C(=C/C=C3/N(CCCCS(=O)(=O)O)c4ccc(S(=O)(=O)O)cc4C3(C)C)/CCC2)=[N+](CCCCS(=O)(=O)[O-])c2ccc(S(=O)(=O)O)cc21 [Compound 85],excellent,excellent,very high accumulation,very good,tumor fluorescence intensity and tumor-to-background ratio compared to the compound 61 [1]: less
CC1(C)C(/C=C/C2=C(Oc3ccc(C[C@H](NC(=O)CCOCCOCCNc4c(F)c(S(N)(=O)=O)c(F)c(F)c4S(=O)(=O)CCO)C(=O)O)cc3)C(=C/C=C3/N(CCCCS(=O)(=O)O)c4ccc(S(=O)(=O)O)cc4C3(C)C)/CCC2)=[N+](CCCCS(=O)(=O)[O-])c2ccc(S(=O)(=O)O)cc21 [Compound 86],–,–,–,very good,brightness compared to 60 and 61 [1]: less brighter
CC1(C)C(=CC=C2CCCC(C=CC3=[N+](CCCCS(=O)(=O)[O-])c4ccc(S(=O)(=O)O)cc4C3(C)C)=C2Oc2ccc(CC(NC(=O)CCOCCOCCNC(=O)CCS(=O)(=O)c3c(F)c(F)c(S(N)(=O)=O)c(F)c3NC(c3ccccc3)c3ccccc3)C(=O)O)cc2)N(CCCCS(=O)(=O)O)c2ccc(S(=O)(=O)O)cc21 (stereo not shown) [Compound 88],–,–,–,–,whole-body imaging data ([1]; after 8 hours of administering): good; tumor-to-background ratio (TBR) ([1]; at 24 hour time point): excellent; tumor-to-skin ratio ([1]; at 24 hour time point): excellent
CN(C)C(N(c1c(F)c(S(N)(=O)=O)c(F)c(F)c1S(=O)(=O)CCC(=O)NCCOCCOCCC(=O)N[C@@H](Cc1ccc(OC2=C(/C=C/C3=[N+](CCCCS(=O)(=O)O)c4ccc(S(=O)(=O)O)cc4C3(C)C)CCC/C2=C\C=C2\N(CCCCS(=O)(=O)O)c3ccc(S(=O)(=O)O)cc3C2(C)C)cc1)C(=O)O)C1CCCCCCC1)=[N+](C)C [Compound 104],excellent,excellent,very high accumulation,good,–
CC1(C)C(/C=C/C=C/C=C/C=C2\N(CCCCS(=O)(=O)[O-])c3ccc4ccccc4c3C2(C)C)=[N+](CCCCS(=O)(=O)[O-])c2ccc3ccccc3c21.[Na+] [IR125],–,–,–,–,in vitro cytotoxicity [2]: significant values of cytotoxicity
CN1/C(=C/C=C2\CCCC(/C=C/C3=[N+](C)c4ccc5ccccc5c4C3(C)C)=C2Cl)C(C)(C)c2c1ccc1ccccc21.Cc1ccc(S(=O)(=O)[O-])cc1 [IR813],–,–,–,–,in vitro cytotoxicity [2]: significant values of cytotoxicity
CC1(C)C(=CC=C2CCCC(C=CC3=[N+](CCCCS(=O)(=O)[O-])c4ccc5ccccc5c4C3(C)C)=C2Cl)N(CCCCS(=O)(=O)[O-])c2ccc3ccccc3c21.[Na+] [IR820],–,–,–,–,in vitro cytotoxicity [2]: no major cytotoxic effects
